Test results taken from ChEMBL document CHEMBL4706653, “Ultra-short lipopeptides against gram-positive bacteria while alleviating antimicrobial resistance” (Eur J Med Chem, 2021).
In brackets after ≈: the same amount, converted by molar mass. Activity calls are given as the source filed them. No cut-off for these calls is given here. Positions of bridges follow the written chain, without caps; N, C: chain ends. Non-standard residues stand in square brackets, D forms with d. Residues, ends and D or L forms follow the SMILES beside them. *: point of attachment. X1 = CC[C@H](C)CCCCC(=O)*; Dab = NCC[C@H](N)C(=O)O

Columns and labels:
Staphylococcus aureus [1] = assay: Induction of nucleic acid leakage in Staphylococcus aureus ATCC 25923 at 4 times MIC; format: functional
Staphylococcus aureus [2] = assay: Antimicrobial activity against Staphylococcus aureus ATCC 29213 after 18 hrs by broth microdilution method; format: functional
[3] = Toxicity in BALB/c mouse assessed as congestion in liver at 20 mg/kg, ip administered as single dose measured after 5 days; format: organism-based; conditions: in vivo, 120 h, time 5 day
Staphylococcus aureus [4] = assay: Induction of reactive oxygen species generation in Staphylococcus aureus ATCC 25923 by […] dye based fluorescence assay; format: functional, organism-based
[5] = Toxicity in BALB/c mouse assessed as liver cell lysis at 80 mg/kg, ip administered as single dose measured after 5 days; format: organism-based; conditions: in vivo, 120 h, time 5 day
Staphylococcus aureus [6] = assay: Antimicrobial activity against methicillin-resistant Staphylococcus aureus 113 after 18 hrs by broth microdilution method; format: functional
[7] = Toxicity in BALB/c mouse assessed as congestion in kidney at 40 mg/kg, ip administered as single dose measured after 5 days; format: organism-based; conditions: in vivo, 120 h, time 5 day
Lipopolysaccharide (LPS) = assay: Binding affinity to LPS (unknown origin) assessed as bacterial killing at 2 times MIC preincubated for 1 hr followed by Staphylococcus aureus ATCC 25923 addition and measured after 2 hrs by colony counting method; conditions: time 3.0 hrs
Staphylococcus aureus [8] = assay: Antimicrobial activity against Staphylococcus aureus ATCC 25923 at 0.5 times MIC after 15 passages by broth microdilution method; format: functional, organism-based
[9] = Toxicity in BALB/c mouse assessed as immobility at 20 to 80 mg/kg, ip administered as single dose measured within 30 mins; format: organism-based; conditions: in vivo, 0.5 h, dose 20-80 mg/kg
Cell membrane [10] = assay: Induction of membrane disruption in Staphylococcus aureus ATCC 25923 assessed as PI-positive cells at 4 times MIC measured after 2 hrs by propidium iodide staining based flow cytometry relative to control
[11] = Toxicity in BALB/c mouse assessed as eosinophilic mass in the renal tubular lumen at 80 mg/kg, ip administered as single dose measured after 5 days; format: organism-based; conditions: in vivo, 120 h, time 5 day
Staphylococcus aureus [12] = assay: Antimicrobial activity against Staphylococcus aureus ATCC 25923 after 18 hrs by broth microdilution method; format: functional
[13] = Toxicity in BALB/c mouse assessed as death at 20 to 80 mg/kg, ip administered as single dose measured within 30 mins; format: organism-based; conditions: in vivo, 0.5 h, dose 20-80 mg/kg
Staphylococcus aureus [14] = assay: Antibiofilm activity against Staphylococcus aureus ATCC 25923 at 0.5 to 8 uM after 24 hrs by crystal violet staining based assay; format: functional, organism-based; conditions: dose 0.5-8 µM
[15] = Toxicity in BALB/c mouse assessed as inflammatory cell infiltration in liver at 20 mg/kg, ip administered as single dose measured after 5 days; format: organism-based; conditions: in vivo, 120 h, time 5 day
[16] = Toxicity in BALB/c mouse assessed as vacuoles in liver cytoplasm at 20 mg/kg, ip administered as single dose measured after 5 days; format: organism-based; conditions: in vivo, 120 h, time 5 day
[17] = Toxicity in BALB/c mouse assessed as swelling of renal tubular epithelial cells at 80 mg/kg, ip administered as single dose measured after 5 days; format: organism-based; conditions: in vivo, 120 h, time 5 day
Cell membrane [18] = assay: Induction of membrane disruption in Staphylococcus aureus ATCC 25923 measured after 2 hrs by propidium iodide staining based confocal laser scanning microscopic analysis; format: subcellular
Staphylococcus aureus [19] = assay: Antimicrobial activity against Staphylococcus aureus ATCC 25923 assessed as bacterial killing preincubated for 4 hrs followed by replating on MHB agar and measured after 24 hrs by time kill assay; format: functional, organism-based; conditions: time 28.0 hrs
[20] = Toxicity in BALB/c mouse assessed as ruffled fur at 20 to 80 mg/kg, ip administered as single dose measured within 30 mins; format: organism-based; conditions: in vivo, 0.5 h, dose 20-80 mg/kg
Staphylococcus aureus [21] = assay: Antimicrobial activity against methicillin-resistant Staphylococcus aureus 75 after 18 hrs by broth microdilution method; format: functional
[22] = tested on: Staphylococcus epidermidis; assay: Antimicrobial activity against Staphylococcus epidermidis ATCC 12228 after 18 hrs by broth microdilution method; format: functional
[23] = tested on: Staphylococcus epidermidis; assay: Antimicrobial activity against Staphylococcus epidermidis ATCC 12228 at 0.5 times MIC after 15 passages by broth microdilution method; format: functional, organism-based
Cell membrane [24] = assay: Induction of membrane disruption in Staphylococcus aureus ATCC 25923 assessed as PI-positive cells at 2 times MIC measured after 2 hrs by propidium iodide staining based flow cytometry relative to control
[25] = Toxicity in BALB/c mouse assessed as death at 20 mg/kg, ip administered as single dose measured within 24 hrs; format: organism-based; conditions: in vivo
[26] = Toxicity in BALB/c mouse assessed as inflammatory cell infiltration in kidney at 80 mg/kg, ip administered as single dose measured after 5 days; format: organism-based; conditions: in vivo, 120 h, time 5 day
[27] = Binding affinity to LTA (unknown origin) assessed as bacterial killing at 2 times MIC preincubated for 1 hr followed by Staphylococcus aureus ATCC 25923 addition and measured after 2 hrs by colony counting method; conditions: time 3.0 hrs
Bacillus subtilis = assay: Antimicrobial activity against Bacillus subtilis ATCC 23857 after 18 hrs by broth microdilution method; format: functional
Cell membrane [28] = assay: Induction of cytoplasmic membrane disruption in Staphylococcus aureus ATCC 25923 measured for 15 mins by DiSC3-5 dye based fluorescence assay
Staphylococcus aureus [29] = assay: Antibiofilm activity against ciprofloxacin-resistant Staphylococcus aureus ATCC 25923 at 0.5 to 8 uM after 24 hrs by crystal violet staining based assay; format: functional, organism-based; conditions: dose 0.5-8 µM
Staphylococcus aureus [30] = assay: Antimicrobial activity against Staphylococcus aureus ATCC 25923 infected in neutropenia BALB/c mouse assessed as reduction in bacterial load in kidney at 10 to 20 mg/kg, ip administered staring from 2 hrs post infection and measured 8 hrs post-infected; format: functional, organism-based; conditions: dose 10-20 mg/kg, time 6.0 hrs
Cell membrane [31] = assay: Induction of membrane disruption in Staphylococcus aureus ATCC 25923 measured after 2 hrs by propidium iodide staining based flow cytometry
Mus musculus = assay: Antiinflammatory activity in Staphylococcus aureus ATCC 25923 infected neutropenia BALB/c mouse assessed as reduction in TNFalpha level in serum at 10 to 20 mg/kg, ip administered staring from 2 hrs post infection and measured 8 hrs post-infected; format: functional, organism-based; conditions: dose 10-20 mg/kg, time 6.0 hrs
Staphylococcus aureus [32] = assay: Antimicrobial activity against Staphylococcus aureus ATCC 25923 infected in neutropenia BALB/c mouse assessed as reduction in lung bacterial load at 10 to 20 mg/kg, ip administered staring from 2 hrs post infection and measured 8 hrs post-infected; format: functional, organism-based; conditions: dose 10-20 mg/kg, time 6.0 hrs
Staphylococcus aureus [33] = assay: Antimicrobial activity against Staphylococcus aureus ATCC 25923 infected in neutropenia BALB/c mouse assessed as reduction in bacterial load in liver at 10 to 20 mg/kg, ip administered staring from 2 hrs post infection and measured 8 hrs post-infected; format: functional, organism-based; conditions: dose 10-20 mg/kg, time 6.0 hrs
Staphylococcus aureus [34] = assay: Antimicrobial activity against Staphylococcus aureus ATCC 25923 infected in neutropenia BALB/c mouse assessed as reduction in bacterial load in spleen at 10 to 20 mg/kg, ip administered staring from 2 hrs post infection and measured 8 hrs post-infected; format: functional, organism-based; conditions: dose 10-20 mg/kg, time 6.0 hrs
HEK-293T = assay: Cytotoxicity against HEK293T cells assessed as reduction in cell viability at 1 uM measured after 24 hrs by MTT assay; format: cell-based; conditions: human
Erythrocyte = assay: Hemolytic activity against mouse erythrocytes measured after 1 hr; format: ADME, cell-based
[35] = Therapeutic index, ratio of MHC for mouse RBC to geometric mean of peptide MIC for Staphylococcus epidermidis ATCC 12228; format: toxicity; conditions: pooled result: one value given for 6 cell lines, strains, targets or settings, read-out: TI
Staphylococcus aureus [36] = assay: Antimicrobial activity against Staphylococcus aureus ATCC 25923 assessed as bacterial killing at 4 times MIC preincubated for 30 mins followed by replating on MHB agar and measured after 24 hrs by time kill assay; format: functional, organism-based; conditions: time 24.5 hrs
Staphylococcus aureus [37] = assay: Ratio of MIC for antimicrobial activity against Staphylococcus aureus ATCC 25923 in presence of 2.5% serum to MIC for antimicrobial activity against Staphylococcus aureus ATCC 25923 in absence of serum; format: functional
Staphylococcus aureus [38] = assay: Antimicrobial activity against Staphylococcus aureus ATCC 25923 assessed as bacterial killing at MIC preincubated for 4 hrs followed by replating on MHB agar and measured after 24 hrs by time kill assay; format: functional, organism-based; conditions: time 28.0 hrs
Staphylococcus aureus [39] = assay: Ratio of MIC for antimicrobial activity against Staphylococcus aureus ATCC 25923 in presence of 10% serum to MIC for antimicrobial activity against Staphylococcus aureus ATCC 25923 in absence of serum; format: functional
Staphylococcus aureus [40] = assay: Antimicrobial activity against Staphylococcus aureus ATCC 25923 assessed as bacterial killing at 0.5 times MIC preincubated for 4 hrs followed by replating on MHB agar and measured after 24 hrs by time kill assay; format: functional, organism-based; conditions: time 28.0 hrs
Staphylococcus aureus [41] = assay: Antimicrobial activity against Staphylococcus aureus ATCC 25923 assessed as bacterial killing at 2 times MIC preincubated for 2 hrs followed by replating on MHB agar and measured after 24 hrs by time kill assay; format: functional, organism-based; conditions: time 26.0 hrs
Staphylococcus aureus [42] = assay: Ratio of MIC for antimicrobial activity against Staphylococcus aureus ATCC 25923 in presence of 5% serum to MIC for antimicrobial activity against Staphylococcus aureus ATCC 25923 in absence of serum; format: functional

CC[C@H](C)CCCCC(=O)N[C@@H](CCN)C(=O)N[C@H](C(=O)N[C@@H](CCN)C(=O)N[C@H]1CCNC(=O)[C@H]([C@@H](C)O)NC(=O)[C@H](CCN)NC(=O)[C@H](CCN)NC(=O)[C@H](CC(C)C)NC(=O)[C@@H](Cc2ccccc2)NC(=O)[C@H](CCN)NC1=O)[C@@H](C)O (X1-[Dab]T[Dab][Dab][Dab][dF]L[Dab][Dab]T; lactam 4-C)
Activity (Staphylococcus aureus [1]): inactive
MIC (Staphylococcus aureus [2]): 16 µM (≈ 19.3 µg/mL)
Activity [3]: Toxic
Activity (Staphylococcus aureus [4]): Active
Activity [5]: Toxic
MIC (Staphylococcus aureus [6]): 8 µM (≈ 9.63 µg/mL)
Activity [7]: Toxic
Activity (Lipopolysaccharide (LPS)): Active
Activity (Staphylococcus aureus [8]): Active
Activity [9]: Toxic
Activity (Cell membrane [10]): 84.8%
Activity [11]: Toxic
MIC (Staphylococcus aureus [12]): 16 µM (≈ 19.3 µg/mL)
Activity [13]: Toxic
Activity (Staphylococcus aureus [14]): Active
Activity [15]: Toxic
Activity [16]: Toxic
Activity [17]: Toxic
Activity (Cell membrane [18]): inactive
Activity (Staphylococcus aureus [19]): inactive
Activity [20]: Toxic
MIC (Staphylococcus aureus [21]): 8 µM (≈ 9.63 µg/mL)
MIC [22]: 8 µM (≈ 9.63 µg/mL)
Activity [23]: Active
Activity (Cell membrane [24]): 68%
Activity [25]: Toxic
Activity [26]: Toxic
Activity [27]: Active
MIC (Bacillus subtilis): 8 µM (≈ 9.63 µg/mL)
Activity (Cell membrane [28]): inactive
Activity (Staphylococcus aureus [29]): Active

O=C(O)c1cn(C2CC2)c2cc(N3CCNCC3)c(F)cc2c1=O [CIPROFLOXACIN]
Activity (Staphylococcus aureus [1]): Active
MIC (Staphylococcus aureus [2]): 1 µM (≈ 0.331 µg/mL)
Activity (Staphylococcus aureus [4]): Active
MIC (Staphylococcus aureus [6]): < 1 µM
Activity (Lipopolysaccharide (LPS)): inactive
Activity (Staphylococcus aureus [30]): Active
Activity (Cell membrane [31]): inactive
Activity (Mus musculus): Active
MIC (Staphylococcus aureus [12]): 1 µM (≈ 0.331 µg/mL)
Activity (Staphylococcus aureus [14]): Active
Activity (Staphylococcus aureus [32]): Active
Activity (Cell membrane [18]): inactive
Activity (Staphylococcus aureus [19]): inactive
MIC (Staphylococcus aureus [21]): 128 µM (≈ 42.4 µg/mL)
MIC [22]: < 1 µM
Activity (Staphylococcus aureus [33]): Active
Activity [27]: inactive
MIC (Bacillus subtilis): < 1 µM
Activity (Cell membrane [28]): inactive
Activity (Staphylococcus aureus [34]): Active
Activity (Staphylococcus aureus [29]): Active

CC[C@H](C)[C@H](NC(=O)CN)C(=O)NCC(=O)N[C@@H](C)C(=O)N[C@H](C(=O)N[C@@H](CC(C)C)C(=O)N[C@@H](CCCCN)C(=O)N[C@H](C(=O)N[C@@H](CC(C)C)C(=O)N[C@H](C(=O)N[C@H](C(=O)NCC(=O)N[C@@H](CC(C)C)C(=O)N1CCC[C@H]1C(=O)N[C@@H](C)C(=O)N[C@@H](CC(C)C)C(=O)N[C@H](C(=O)N[C@@H](CO)C(=O)N[C@@H](Cc1c[nH]c2ccccc12)C(=O)N[C@H](C(=O)N[C@@H](CCCCN)C(=O)N[C@@H](CCCNC(=N)N)C(=O)N[C@@H](CCCCN)C(=O)N[C@@H](CCCNC(=N)N)C(=O)N[C@@H](CCC(N)=O)C(=O)N[C@@H](CCC(N)=O)C(N)=O)[C@@H](C)CC)[C@@H](C)CC)[C@@H](C)O)[C@@H](C)O)C(C)C)C(C)C [MELITTIN]
Activity (Staphylococcus aureus [1]): inactive
Activity (HEK-293T): Toxic
Activity (Staphylococcus aureus [4]): Active
MHC10 (Erythrocyte): 2 µM
Activity (Lipopolysaccharide (LPS)): Active
selectivity ratio [35]: 0.8
Activity (Staphylococcus aureus [8]): Active
Activity (Cell membrane [10]): 92.5%
Activity (Staphylococcus aureus [14]): Active
Activity (Staphylococcus aureus [36]): Active
Ratio (Staphylococcus aureus [37]): 2
Activity (Staphylococcus aureus [38]): Active
Activity (Cell membrane [18]): Active
Ratio (Staphylococcus aureus [39]): 2
Activity (Staphylococcus aureus [40]): inactive
Activity [23]: Active
Activity (Cell membrane [24]): 91.9%
Activity [27]: Active
Activity (Cell membrane [28]): Active
Activity (Staphylococcus aureus [41]): Active
Activity (Staphylococcus aureus [29]): Active
Ratio (Staphylococcus aureus [42]): 2
